Test results: patent publication US20230303549A1, “SUBSTITUTED HETEROARYLOXYPYRIDINES, THE SALTS THEREOF AND THEIR USE AS HERBICIDAL AGENTS” (Bayer Aktiengesellschaft, priority 2020, published 2023)

Experiments:
Assay type in all cases: in vivo
[1] = tested on: Abutilon theophrasti (ABUTH); experiment: Post-emergence herbicidal efficacy at 320 g/ha, greenhouse pot test; conditions: visual rating vs untreated control after about 3 weeks
Protocol: (§1) Seeds of mono- and dicotyledonous weed plants were placed in plastic pots in sandy loam soil (doubly sown with in each case one species of mono- or dicotyledonous weed plants per pot), covered with soil and cultivated in a greenhouse under controlled growth conditions. 2 to 3 weeks after sowing, the test plants were treated at the one-leaf stage. The compounds of the invention, formulated in the form of wettable powders (WP) or as emulsion concentrates (EC), were applied onto the green parts of the plants as aqueous suspension or emulsion with addition of 0.5% additive at a water application rate of 600 liters per hectare (converted). After the test plants had been kept in the greenhouse under optimum growth conditions for about 3 weeks, the activity of the preparations was rated visually in comparison to untreated controls. For example, 100% activity=the plants have died, 0% activity=like control plants. Tables […] 11 below show the effects of selected compounds of the general formula (I) according to Table 1 on various harmful plants and an application rate corresponding to 320 g/ha, which were obtained by the experimental procedure mentioned above.

Stellaria media (STEME) [2] = experiment: as above; conditions: visual rating vs untreated control after about 3 weeks
Protocol: as §1

Veronica persica (VERPE) [3] = experiment: as above; conditions: 320 g/ha, visual rating vs untreated control after about 3 weeks
Protocol: as §1

[4] = tested on: Amaranthus retroflexus (AMARE); experiment: Pre-emergence herbicide efficacy at 320 g/ha, greenhouse pot test; conditions: visual scoring vs untreated control after about 3 weeks
Text: (§2) Seeds of mono- and dicotyledonous weed plants were placed in plastic pots in sandy loam soil (doubly sown with in each case one species of mono- or dicotyledonous weed plants per pot) and covered with soil. The compounds of the invention, formulated in the form of wettable powders (WP) or as emulsion concentrates (EC), were then applied onto the surface of the covering soil as aqueous suspension or emulsion with addition of 0.5% additive at a water application rate of 600 liters per hectare (converted). After the treatment, the pots were placed in a greenhouse and kept under good growth conditions for the test plants. After about 3 weeks, the effect of the preparations was scored visually in comparison with untreated controls as percentages. For example, 100% activity=the plants have died, 0% activity=like control plants. Tables C1 to C12 below show the effects of selected compounds of the general formula (I) according to Table 1 on various harmful plants and an application rate corresponding to 320 g/ha, which were obtained by the experimental procedure mentioned above.

[5] = tested on: Matricaria inodora (MATIN); experiment: as above; conditions: visual scoring vs untreated control after about 3 weeks
Text: as §2

Stellaria media (STEME) [6] = experiment: as above; conditions: visual scoring vs untreated control after about 3 weeks
Text: as §2

[7] = tested on: Abutilon theophrasti (ABUTH); experiment: as above; conditions: visual scoring vs untreated control after about 3 weeks
Text: as §2

Bassia scoparia (KCHSC) = experiment: as above; conditions: dosage 1280 g/ha in Table C6, visual scoring after about 3 weeks
Text: as §2

Poa annua (POAAN) [8] = experiment: as above; conditions: visual scoring vs untreated control after about 3 weeks
Text: as §2

[9] = tested on: Amaranthus retroflexus (AMARE); experiment: Post-emergence herbicidal efficacy at 320 g/ha, greenhouse pot test; conditions: visual rating vs untreated control after about 3 weeks
Protocol: as §1

[10] = tested on: Echinochloa crus-galli (ECHCG); experiment: Pre-emergence herbicide efficacy at 320 g/ha, greenhouse pot test; conditions: visual scoring vs untreated control after about 3 weeks
Text: as §2

Veronica persica (VERPE) [11] = experiment: as above; conditions: visual scoring vs untreated control after about 3 weeks
Text: as §2

Setaria viridis (SETVI) = experiment: as above; conditions: visual scoring vs untreated control after about 3 weeks
Text: as §2

Poa annua (POAAN) [12] = experiment: Post-emergence herbicidal efficacy at 320 g/ha, greenhouse pot test; conditions: visual rating vs untreated control after about 3 weeks
Protocol: as §1

Structure (SMILES)	Post-emergence efficacy against Abutilon theophrasti (ABUTH) [1]	Post-emergence action against Stellaria media (STEME) (Stellaria media (STEME) [2])	Post-emergence efficacy against Veronica persica (VERPE) (Veronica persica (VERPE) [3])	Pre-emergence efficacy against Amaranthus retroflexus (AMARE) [4]	Pre-emergence efficacy against Matricaria inodora (MATIN) [5]	Pre-emergence efficacy against Stellaria media (STEME) (Stellaria media (STEME) [6])	Pre-emergence efficacy against Abutilon theophrasti (ABUTH) [7]	Pre-emergence efficacy against Bassia scoparia (KCHSC) (Bassia scoparia (KCHSC))	Pre-emergence efficacy against Poa annua (POAAN) (Poa annua (POAAN) [8])	Post-emergence efficacy against Amaranthus retroflexus (AMARE) [9]	Pre-emergence efficacy against Echinochloa crus-galli (ECHCG) [10]	Pre-emergence efficacy against Veronica persica (VERPE) (Veronica persica (VERPE) [11])	Pre-emergence efficacy against Setaria viridis (SETVI) (Setaria viridis (SETVI))	Post-emergence efficacy against Poa annua (POAAN) (Poa annua (POAAN) [12])
Cc1cc(C)c(-c2cc(C3(C)CC3)no2)c(Oc2ncc(Br)cn2)n1 [Example I-298]	90%	90%	90%	90%	90%	100%	–	–	–	–	–	–	–	–
Cc1cc(C)c(-c2cc(CC3CC3)no2)c(Oc2ncc(Cl)cn2)n1 [Example I-201]	90%	90%	90%	90%	–	90%	90%	90%	100%	–	–	–	–	–
Cc1cc(C)c(-n2cc(Br)cn2)c(Oc2ncc(Cl)cn2)n1 [Example I-278]	–	90%	90%	–	–	100%	100%	100%	–	100%	100%	100%	–	–
Cc1cc(C)c(-c2cc(CC3CC3)no2)c(Oc2ncc(Br)cn2)n1 [Example I-300]	–	90%	–	–	–	90%	–	–	–	–	–	–	–	–
Cc1ccc(-c2cc(C(F)F)on2)c(Oc2ncc(Cl)cn2)n1 [Example I-12]	–	–	–	100%	–	90%	90%	–	100%	–	–	–	–	–
Cc1cc(C)c(-c2cc(C(F)F)no2)c(Oc2ncc(Cl)cc2C#N)n1 [Example I-290]	–	–	90%	–	–	–	–	–	–	100%	–	–	–	–
Cc1cc(C)c(-c2cc(C3(C)CC3)no2)c(Oc2ncc(Cl)cc2F)n1 [Example I-301]	–	90%	90%	–	–	–	–	–	–	–	–	–	–	–
Cc1cc(C)c(-n2cccn2)c(Oc2ncc(Cl)cn2)n1 [Example I-245]	–	–	–	100%	90%	100%	90%	100%	–	–	–	–	–	–
Cc1cc(C)c(-c2cc(C3(C)CC3)no2)c(Oc2ncc(F)cn2)n1 [Example I-299]	90%	90%	90%	100%	–	100%	90%	–	90%	–	90%	–	90%	–
Cc1cc(C)c(-c2cc(C(F)F)no2)c(Oc2ncc(Cl)cc2Cl)n1 [Example I-288]	–	90%	90%	–	–	90%	–	90%	90%	100%	–	–	–	90%
